Data: US10065951B2, “Small molecule transcription modulators of bromodomains” (Icahn School of Medicine at Mount Sinai, priority 2014, dated 2018)

What was measured:
MOG-induced EAE [1] = experiment: MOG-induced EAE in mice, treatment from day 4 after immunization; format: in vivo, mouse
Experimental: FIG. 12A illustrates a score graph of clinical severity of EAE in mice injected with MOG as described herein. Each group was composed of 6-9 mice. Below the score, the graphs show the levels of myelin transcripts detected at the times denoted by asterisks in the score graph. 12B provides transcript levels detected in the spinal cord of mice harvested at the same time points as the asterisks in 12A.
An in vivo mouse model study was conducted to determine how treatment with 4c would modulate oligodendrocyte progenitor differentiation and impact repair after demyelination. In a first series of experiments, a model of immune-mediated demyelination was used. EAE was induced by subcutaneous injection of 300 μg of MOG35-55 peptide thoroughly emulsified in complete Freund's adjuvant containing heat-inactivated Mycobacterium tuberculosis in the mouse flank on day 0 and 7. Pertussis toxin (500 ng) was intraperitoneally injected on day 0 and 2. After immunization mice were observed and weighed daily and scored for severity of symptoms as follows: 0, no detectable symptoms; 1, loss of tail tone; 2, hindlimb weakness or abnormal gait; 3, complete paralysis of the hindlimbs; 4, complete hindlimb and forelimb paralysis; 5, death. A minimum of 6-9 animals received daily intraperitoneal injections of 4c, starting from day 4 after immunization with the MOG peptide (FIG. 12A) and weight and clinical score were recorded daily. Disease onset was similar in mice treated with 4c compared to DMSO-injected controls.

[2] = tested on: histone H3 acetylation in Oli-Neu cells; experiment: Western blot of histone acetylation in Oli-Neu oligodendrocyte progenitor cell line; format: cell-based, mouse; settings: oligodendrocyte-derived cell lines, one day treatment
Experimental: FIG. 4 illustrates the effects of dose-dependent 4c treatment (one day) of immortialized oligodendrocyte progenitors (Oli-Neu) on histone H3 acetylation and α-tubulin assessed by Western blotting using specific antibodies.
Oli-Neu cell line derived from mouse oligodendrocyte progenitors immortalized with the Neu antigen were grown on poly-ornithine-coated culture dishes and maintained proliferating in growth medium ODM plus 1% horse serum as previously described (He et al., 2007). Oli-Neu cells were induced to differentiation in ODM+0.5 mM dybutiryl-cAMP (Sigma) and treated together with CM000149 at indicated concentrations for one day. The cells treated with DMSO were used as the control. Total proteins from cultured cells were extracted using lysis buffer containing 50 mM Hepes (pH 7.4), 150 mM NaCl, 1% NP-40, 1 mM dithiothreitol (DTT), 1 mM EDTA, 0.01% phenylmethylsulfonyl fluoride (PMSF), 1 mM aprotinin and 1 mM leupeptin. Equal amount (40 μg) of proteins were loaded on 12% SDS-PAGE for separation and transferred onto PVDF (Millipore) membrane using a buffer containing 25 mM Tris base, pH 8.3, 192 mM glycine, 20% methanol for 1 hour at 100 V at 4° C. […]

[3] = tested on: cuprizone-induced demyelination; experiment: Cuprizone model of demyelination in old mice; format: in vivo, mouse; settings: injection starting during the 3rd week
Experimental: Effect of treatment with 2.4 μg/Kg 4c (olinone; red bars) and DMSO (black bars) treatment on the expression of progenitor (i.e. NG2), astrocytic (i.e. GFAP) and oligodendrocyte (i.e. MBP, MOG, PLP) genes.
FIG. 16 illustrates enhanced remyelination in 4c-treated mice. […] Cuprizone damages myelin and this can be best seen as a decreased in the staining intensity. The effect on repair is shown by the darker intensity of the myelinated fibers.
A similar experiment was repeated in the cuprizone model of demyelination (FIG. 15). This model, characterized by precocious loss of myelin gene transcripts and oligodendrocyte apoptosis, followed by a repair phase characterized by expansion of the progenitor pool followed by differentiation has been previously described (Matsushima, G. K., and Morell, P. (2001). Brain Pathol 11:107-116). It was shown that in young mice the repair phase starts at week 3 and is characterized by the HDAC-dependent phase of differentiation of endogenous progenitors (Shen, S., Sandoval, J., Swiss, V. A., Li, J., Dupree, J., Franklin, R. J., and Casaccia-Bonnefil, P. (2008) Nat Neurosci 11:1024-1034) old mice repair was impaired, due to unopposed HAT activity, resulting in high levels of transcriptional inhibitors of oligodendrocyte differentiation and low myelin gene transcripts.

MOG-induced EAE [4] = experiment: MOG-induced EAE in mice, 7-day treatment started after onset of clinical symptoms; format: in vivo, mouse; settings: treatment from day 18 for 7 days, mice with score 2.5-3.0; after 3-4 days of treatment
Experimental: FIG. 14 illustrates seven-day 4c treatment accelerates recovery from MOG-induced EAE even if started AFTER the onset of clinical symptoms.
This study was conducted to determine whether the effectiveness of 4c can be observed in animals even if started once the disease has progressed to peak clinical symptoms. For this reason, MOG-dependent EAE in mice was induced and the animals scored daily. On day 18 post-immunization mice with a score of 2.5-3.0 (paralysis of one leg and weakness of the other to paralysis of both hindlimbs) were selected and divided into two groups receiving either 4c or vehicle treatment for 7 days.

acetyl-K18 H3/total H3 = experiment: Histone H3 Lys18 acetylation in lymphnodes and spinal cord of EAE mice (western blot); format: in vivo, mouse; settings: nanomolar 4c (2.4 μg/Kg), day 18 and day 38
Experimental: Quantification of western blots results. The bars show the ratio between acetyl-K18 H3/total H3 in vehicle-treated controls (gray) and 4c-treated mice (white).
One of the difficulties of such an experimental design was the fact that it is difficult to exclude the possibility that the faster recovery was due to decreased inflammation, rather than a direct enhancement of the repair potential of endogenous progenitors in the CNS. To address whether the effect of 2.4 μg/Kg 4c was due to its effect on the peripheral organs or the CNS, histones were extracted from lymphnodes and spinal cords at day 18 (i.e. peak of clinical symptoms) and at day 38 (the end of the recovery period).
These extracts were then processed for western blot for acetylated Lys 18 of histone H3 and total histone H3, the former of which is linked to gene transcriptional activation.

[5] = 0.24 μg/kg (10 nM), daily intraperitoneal from day 4
[6] = 2.4 μg/kg (100 nM), daily intraperitoneal from day 4

CC(=O)NCCCCn1c2c(c3ccccc31)C(=O)NCC2 [4c, 2,3,4,5-tetrahydro-5-(4′-acetamidobutyl)-1H-pyrido-[4,3-b]indol-1-one]
Average score (MOG-induced EAE [1]; [5]): 2.25
Maximum score (MOG-induced EAE [1]; [5]): 2.5
Number of animals with clinical signs (MOG-induced EAE [1]; [5]): 4 out of 7
Number of mice with score <0.5 (MOG-induced EAE [1]; [5]): 1/4
recovery period compared to vehicle controls (MOG-induced EAE [1]; 2.4 μg/Kg): dramatically accelerated
myelin gene transcripts in spinal cord during recovery (MOG-induced EAE [1]; 2.4 μg/Kg, similar levels of cytokines): significant increase of myelin gene transcripts
Average score (MOG-induced EAE [1]; [6]): 2.25
Number of animals with clinical signs (MOG-induced EAE [1]; [6]): 5 out of 7
Number of mice with score <0.5 (MOG-induced EAE [1]; [6]): 4/5
disease onset compared to DMSO-injected controls (MOG-induced EAE [1]; daily intraperitoneal from day 4): similar
disease severity at day 18 (MOG-induced EAE [1]; day 18, vs vehicle-injected controls): less severe disease
global histone acetylation [2]: decrease of global histone acetylation in a dose-dependent manner
formation of new myelin (eryochrome cyanine staining) [3]: favors the formation of new myelin
myelin gene transcripts ([3]; 2.4 μg/Kg): increased myelin gene transcripts
recovery when treatment started at peak clinical symptoms (MOG-induced EAE [4]): showed signs of recovery
histone acetylation (acetyl-K18 H3/total H3) in spinal cord and lymphnode (acetyl-K18 H3/total H3): in the spinal cord (FIG. 13B), but not in the lymphnode
